Consider 20 molecules from publication PMC4311994, “Identification, Expression Profiling and Fluorescence-Based Binding Assays of a Chemosensory Protein Gene from the Western Flower Thrips, Frankliniella occidentalis” (PLoS ONE, 2015).

The target of assay [1] is recombinant FoccCSP protein (Frankliniella occidentalis, UniProt A0A0C5AYL1). Briefly: biochemical. Type of assay: binding. The conditions noted are these: for Kd: Dissociation constant (KD), calculated from IC50 with Ki = [IC50]/(1+[1-NPN]/K1-NPN). On the procedure:
(§1) Fluorescence binding assays were performed using a 970CRT spectrofluorophotometer (Lengguang, Shanghai, China) at 25°C with a 1 cm lightpath quartz cuvette and 10 nm slit width for excitation and emission. FoccCSP protein was diluted from a 2 μM stock solution with 50 mM Tris-HCl buffer (pH 7.4). The fluorescent probe N-phenyl-1-naphthylamine (1-NPN) was diluted from a 1 mM stock solution with methanol. The potential ligands were prepared in a similar manner as 1-NPN.
To measure the affinity of the 1-NPN fluorescent ligand for FoccCSP, the 2 μM protein solution prepared above was titrated with 1 mM 1-NPN to a final concentration between 2 and 20 μM. The affinities of the other potential ligands were measured using 1-NPN as a fluorescent reporter in competitive binding assays using 2 μM solutions of 1-NPN and FoccCSP and the addition of ligands to concentrations of 2–300 μM.
To determine the 1-NPN and FoccCSP binding constants, the intensity values corresponding to the maximum fluorescence emissions were plotted against the concentration of free ligand. The bound ligand was evaluated using the fluorescence intensity values assuming that the protein was 100% active and using a saturation stoichiometry of 1:1 protein:ligand. The curves were linearized using the Scatchard Plot program. The dissociation constants for the competitors were calculated from the corresponding IC50 values using the equation K i = [IC 50]/(1+[1-NPN]/K 1-NPN), where [1-NPN] is the free concentration of 1-NPN and K 1-NPN is the dissociation constant of the FoccCSP/1-NPN complex.

Another assay deals with T1, FoccCSP protein (Frankliniella occidentalis, UniProt A0A0C5AYL1).
T1 sequence (A0A0C5AYL1 20-128): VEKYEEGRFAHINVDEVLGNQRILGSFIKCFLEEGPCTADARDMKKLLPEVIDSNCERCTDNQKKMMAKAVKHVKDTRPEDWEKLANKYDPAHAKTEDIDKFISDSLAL
Briefly: Binding of the fluorescent probe 1-NPN to FoccCSP (titration, Scatchard plot). The conditions noted are these: 2 μM FoccCSP titrated with 1-NPN to 2–20 μM, read-out: FoccCSP/1-NPN complex dissociation constant. As for the experimental part: as §1
The intrinsic fluorescence of tryptophan was measured using a 2 μM FoccCSP protein solution. The excitation wavelength was 285 nm, and the emission spectrum was recorded between 290 and 530 nm. Quenching of the intrinsic fluorescence was measured in the presence of 2, 4, 6, 8, 10, 12, 14, 16, 18, and 20 μM 1-NPN under the same conditions.
To measure the affinity of the 1-NPN fluorescent ligand for FoccCSP, the 2 μM protein solution prepared above was titrated with 1 mM 1-NPN to a final concentration between 2 and 20 μM. […]
To determine the 1-NPN and FoccCSP binding constants, the intensity values corresponding to the maximum fluorescence emissions were plotted against the concentration of free ligand. The bound ligand was evaluated using the fluorescence intensity values assuming that the protein was 100% active and using a saturation stoichiometry of 1:1 protein:ligand. […]

The mark [2] stands for this setting: competitive displacement of 1-NPN, 2 μM 1-NPN and 2 μM FoccCSP, ligands 2–300 μM, 50 mM Tris-HCl pH 7.4, 25°C, read-out: IC50.

Where two headings read alike, the source gives them in different places.

Usually IC50 stands for the midpoint of a concentration-inhibition curve. As to `COc1ccc(C=O)cc1` [Anisic aldehyde], the IC50 in assay [1] (setting [2]) stood at 11.4 µM. For the molecule `CC(C)=CCC/C(C)=C/CO` [Geraniol], the IC50 in assay [1] turned out to be 15.3 µM. Moreover, the Kd in assay [1] (2 μM 1-NPN and 2 μM FoccCSP) was 14.1 µM. Take `CCCCCCCCC=O` [Pelargonic aldehyde]: in assay [1] (setting [2]), the half-inhibitory concentration (IC50) was 79 µM.

Regarding `O=Cc1ccccc1O` [Salicylaldehyde], in assay [1] (ligands up to 300 μM), the “Displacement of 1-NPN from the FoccCSP/1-NPN complex, fluorescence intensity decreased to 50% of the initial value” is “unable to displace the fluorescent 1-NPN probe”. Turning to `CC(=O)OCc1ccccc1` [Benzyl acetate], the IC50 in assay [1] was determined as 98.2 µM. Besides, in assay [1] (2 μM 1-NPN and 2 μM FoccCSP), the Kd is 90.5 µM. Taken in the same sequence, the figures for `COC(=O)c1ccccc1O` [Methyl salicylate] were 35.2 µM and 32.5 µM. `C=CC(C)(O)CCC=C(C)C` (centres unmarked) [Linalool]: the concentration for half-maximal inhibition (IC50) in assay [1] worked out at 85.6 µM. Moreover, in assay [1] (2 μM 1-NPN and 2 μM FoccCSP), the Kd is 79 µM. Taken in the same sequence, the figures for `CC12CCC(CC1)C(C)(C)O2` [Eucalyptol] were 92.4 µM and 85.2 µM.

On to `CCCCCC` [Hexane], for which the 50% inhibitory concentration (IC50) in assay [1] turned out to be 94.2 µM. In assay [1] (2 μM 1-NPN and 2 μM FoccCSP), the Kd was 86.9 µM. On to `COC(=O)c1ccncc1` [Methyl isonicotinate], for which the IC50 in assay [1] (setting [2]) was determined as 52 µM. In the case of `CC(C)=CCC[C@@H](C)CC=O` [Citronellal], the IC50 in assay [1] (setting [2]) stood at 76.1 µM. The same measure, in the same setting: under Neroli stands 98.9 µM. For the molecule `OCc1ccccc1` [Benzyl alcohol], the half-inhibitory concentration (IC50) in assay [1] was determined as 119 µM. The Kd in assay [1] (2 μM 1-NPN and 2 μM FoccCSP) is 109 µM. Taken in the same sequence, the figures for `CCOC(=O)c1cccnc1` [Ethyl nicotinate] were 52 µM and 47.9 µM. For the molecule `c1ccc(Nc2cccc3ccccc23)cc1` [1-NPN, N-phenyl-1-naphthylamine], the Kd at FoccCSP protein is 11.8 µM. As to `O=Cc1ccccc1` [Benzaldehyde], the IC50 in assay [1] is 52.5 µM. For the same molecule, the Kd in assay [1] (2 μM 1-NPN and 2 μM FoccCSP) was 48.4 µM. Taken in the same sequence, the figures for `CC(C)=CCCC(C)CCO` (centres unmarked) [Citronellol] were 75.8 µM and 69.9 µM. Taken in the same sequence, the figures for `CCc1ccccc1` [Ethyl benzene] were 63.4 µM and 58.5 µM. In the case of 3- phenyl aldehyde, the IC50 in assay [1] (setting [2]) was found to be 108 µM. Regarding `C=CCc1ccc(O)c(OC)c1` [Eugenol], the half-maximal inhibitory concentration (IC50) in assay [1] came to 96.4 µM. In assay [1] (2 μM 1-NPN and 2 μM FoccCSP), the Kd was 88.9 µM.
